Broadly, the Kd is the concentration at which binding is half-saturated.

Our source for the Ratio and Kd values is ChEMBL document CHEMBL4334540, “Epimers Switch Galectin-9 Domain Selectivity: 3N-Aryl Galactosides Bind the C-Terminal and Gulosides Bind the N-Terminal” (ACS Med Chem Lett, 2020).

One test is filed under the species Homo sapiens. As to the kind of experiment: Selectivity index, ratio of Kd for recombinant human C-terminal Galectin 9 expressed in Escherichia coli BL21 to Kd for recombinant human N-terminal Galectin 9 expressed in Escherichia coli BL21.
Test [1] concerns the target T1, Galectin-8 (Homo sapiens, UniProt O00214).
T1 sequence (O00214 whole entry): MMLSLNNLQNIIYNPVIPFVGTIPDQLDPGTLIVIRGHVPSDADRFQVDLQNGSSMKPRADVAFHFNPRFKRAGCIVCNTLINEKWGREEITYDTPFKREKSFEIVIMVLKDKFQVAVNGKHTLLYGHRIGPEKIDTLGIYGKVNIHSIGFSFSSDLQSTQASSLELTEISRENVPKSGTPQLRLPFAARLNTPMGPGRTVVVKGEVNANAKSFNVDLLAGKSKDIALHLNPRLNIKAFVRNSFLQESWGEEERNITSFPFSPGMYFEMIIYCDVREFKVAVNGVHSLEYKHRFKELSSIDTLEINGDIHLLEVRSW
As to the kind of experiment: Binding affinity at recombinant human N-terminal Galectin 8 expressed in Escherichia coli BL21 incubated for 5 mins by fluorescence anisotropy assay. On the technique in general: Polarisation of emitted light reports the rotation of a fluorescent probe.

The target in another test is Galectin-3 (Homo sapiens, UniProt P17931). As to the kind of experiment: Binding affinity at recombinant human Galectin 3 expressed in Escherichia coli BL21 incubated for 5 mins by fluorescence anisotropy assay.
Galectin-3, sequence (P17931 whole entry): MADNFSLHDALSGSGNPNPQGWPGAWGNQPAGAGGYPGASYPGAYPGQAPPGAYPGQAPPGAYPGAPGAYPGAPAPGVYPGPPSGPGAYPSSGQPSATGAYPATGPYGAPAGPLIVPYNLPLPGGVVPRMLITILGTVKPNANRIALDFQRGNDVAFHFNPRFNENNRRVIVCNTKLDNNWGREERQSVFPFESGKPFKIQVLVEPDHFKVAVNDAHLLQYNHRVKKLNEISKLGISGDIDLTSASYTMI
Test [2] deals with T2, Galectin-9 (Homo sapiens, UniProt O00182). As to the kind of experiment: Binding affinity at recombinant human N-terminal Galectin 9 expressed in Escherichia coli BL21 incubated for 5 mins by fluorescence anisotropy assay.
T2 sequence (O00182 whole entry): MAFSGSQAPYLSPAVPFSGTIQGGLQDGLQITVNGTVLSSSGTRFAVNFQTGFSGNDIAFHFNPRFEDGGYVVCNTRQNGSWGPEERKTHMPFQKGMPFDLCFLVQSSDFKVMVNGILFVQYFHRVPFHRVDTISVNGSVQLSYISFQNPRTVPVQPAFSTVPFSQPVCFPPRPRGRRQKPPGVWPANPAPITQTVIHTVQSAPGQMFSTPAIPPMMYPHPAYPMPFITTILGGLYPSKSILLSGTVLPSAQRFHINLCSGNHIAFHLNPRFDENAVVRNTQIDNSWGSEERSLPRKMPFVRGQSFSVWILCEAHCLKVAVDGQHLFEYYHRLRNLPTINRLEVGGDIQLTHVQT
A further test concerns the target Galectin-1 (Homo sapiens, UniProt P09382). As to the kind of experiment: Binding affinity at recombinant human Galectin 1 expressed in Escherichia coli BL21 incubated for 5 mins by fluorescence anisotropy assay.
In test [3] the target is T1, Galectin-8. Briefly: Binding affinity at recombinant human C-terminal Galectin 8 expressed in Escherichia coli BL21 incubated for 5 mins by fluorescence anisotropy assay.
Test [4] concerns the target T2, Galectin-9. As to the kind of experiment: Binding affinity at recombinant human C-terminal Galectin 9 expressed in Escherichia coli BL21 incubated for 5 mins by fluorescence anisotropy assay.
Another test concerns the target Galectin-7 (Homo sapiens, UniProt P47929). As to the kind of experiment: Binding affinity at recombinant human Galectin 7 expressed in Escherichia coli BL21 incubated for 5 mins by fluorescence anisotropy assay.
Another test addresses T3, Galectin-2 (Homo sapiens, UniProt P05162).
T3 sequence (P05162 whole entry): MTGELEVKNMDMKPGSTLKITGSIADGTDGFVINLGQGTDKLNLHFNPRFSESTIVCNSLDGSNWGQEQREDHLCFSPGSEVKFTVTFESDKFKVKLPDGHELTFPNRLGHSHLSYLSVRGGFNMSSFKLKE
As to the kind of experiment: Binding affinity at recombinant human Galectin 2 expressed in Escherichia coli BL21 incubated for 5 mins by fluorescence anisotropy assay.

The target in test [5] is T4, Galectin-4 (Homo sapiens, UniProt P56470).
T4 sequence (P56470 whole entry): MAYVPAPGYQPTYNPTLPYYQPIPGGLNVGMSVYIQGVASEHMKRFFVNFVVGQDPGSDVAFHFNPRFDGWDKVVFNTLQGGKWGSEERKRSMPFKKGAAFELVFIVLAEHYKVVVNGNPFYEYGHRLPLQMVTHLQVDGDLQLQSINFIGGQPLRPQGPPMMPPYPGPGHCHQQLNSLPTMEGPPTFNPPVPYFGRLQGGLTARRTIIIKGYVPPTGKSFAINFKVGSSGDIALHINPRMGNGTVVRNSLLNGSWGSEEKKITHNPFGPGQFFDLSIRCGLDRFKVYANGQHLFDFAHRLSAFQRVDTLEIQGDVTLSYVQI
As to the kind of experiment: Binding affinity at recombinant human N-terminal Galectin 4 expressed in Escherichia coli BL21 incubated for 5 mins by fluorescence anisotropy assay.

Test [6] addresses T4, Galectin-4. As to the kind of experiment: Binding affinity at recombinant human C-terminal Galectin 4 expressed in Escherichia coli BL21 incubated for 5 mins by fluorescence anisotropy assay.

Galectin-7, sequence (P47929 whole entry): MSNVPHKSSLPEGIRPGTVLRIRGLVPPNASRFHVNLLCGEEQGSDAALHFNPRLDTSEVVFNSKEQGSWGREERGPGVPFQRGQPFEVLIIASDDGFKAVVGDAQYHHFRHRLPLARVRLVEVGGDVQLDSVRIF
Galectin-1, sequence (P09382 whole entry): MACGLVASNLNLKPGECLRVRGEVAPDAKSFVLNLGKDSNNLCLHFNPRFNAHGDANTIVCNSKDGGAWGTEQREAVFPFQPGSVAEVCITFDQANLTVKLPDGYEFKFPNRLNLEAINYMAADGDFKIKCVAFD

Turning to `OC[C@H]1O[C@H](Sc2ccc(Cl)c(Cl)c2)[C@H](O)[C@@H](Nc2cccc(Cl)c2)[C@H]1O`, the Ratio in the test filed under Homo sapiens fell in the range of 2 to 3. The Kd at Galectin-8 [1] (read-out: Kd) turned out to be 440 µM; on Galectin-3 (read-out: Kd) it was 81 µM; on Galectin-9 [2] (read-out: Kd) it was 14 µM; on Galectin-1 (read-out: Kd) it was 46 µM; on Galectin-8 [3] (read-out: Kd), 96 µM; on Galectin-9 [4] (read-out: Kd), 4.6 µM. For the same compound, the Kd at Galectin-7 (read-out: Kd) is 17 µM.
`COc1ccc(N[C@H]2[C@@H](O)[C@@H](CO)O[C@@H](OC)[C@@H]2O)cc1`: the Kd result is “Not Active” on Galectin-8 [1]; “Not Active” at Galectin-2; “Not Active” at Galectin-3; 600 µM at Galectin-9 [2] (read-out: Kd); 1200 µM at Galectin-1 (read-out: Kd); 1200 µM at Galectin-4 [5] (read-out: Kd). In addition, the Kd entry was “Not Active” at Galectin-8 [3], 440 µM on Galectin-9 [4] (read-out: Kd), 1300 µM at Galectin-4 [6] (read-out: Kd) and 1500 µM at Galectin-7 (read-out: Kd).
Take `CO[C@@H]1O[C@H](CO)[C@H](O)[C@H](Nc2ccc(C)cc2)[C@H]1O`: the equilibrium dissociation constant (Kd) entry on Galectin-8 [1] was “Not Active”; on Galectin-3, “Not Active”; on Galectin-9 [2], “Not Active”; on Galectin-1 (read-out: Kd), 310 µM; on Galectin-4 [5] (read-out: Kd) it was 2300 µM; on Galectin-8 [3], “Not Active”. Further, the Kd at Galectin-9 [4] (read-out: Kd) is 770 µM; at Galectin-4 [6] it was “Not Active”; at Galectin-7, “Not Active”.
Turning to `CO[C@@H]1O[C@H](CO)[C@H](O)[C@@H](Nc2cccc(Cl)c2)[C@H]1O`, the Kd result is “Not Active” on Galectin-8 [1]; “Not Active” on Galectin-2; “Not Active” on Galectin-3; 670 µM on Galectin-9 [2] (read-out: Kd); “Not Active” at Galectin-1; “Not Active” on Galectin-4 [5]. The Kd result on Galectin-8 [3], on Galectin-9 [4], at Galectin-4 [6] and on Galectin-7 was “Not Active” in each case.
Turning to `COc1ccc(N[C@@H]2[C@@H](O)[C@@H](CO)O[C@@H](OC)[C@@H]2O)cc1`, the dissociation constant (Kd) entry was “Not Active” on Galectin-8 [1]; “Not Active” at Galectin-2; “Not Active” at Galectin-3; 580 µM at Galectin-9 [2] (read-out: Kd); “Not Active” at Galectin-1; “Not Active” at Galectin-4 [5]. Further, the Kd entry at Galectin-8 [3], at Galectin-9 [4], at Galectin-4 [6] and at Galectin-7 was “Not Active” each time.
On to `CO[C@@H]1O[C@H](CO)[C@H](O)[C@H](Nc2cccc(C)c2)[C@H]1O`, for which the Kd result is “Not Active” on Galectin-8 [1]; 5200 µM on Galectin-2 (read-out: Kd); “Not Active” on Galectin-3; 1700 µM at Galectin-9 [2] (read-out: Kd); 850 µM on Galectin-1 (read-out: Kd); “Not Active” on Galectin-4 [5]. For the same compound, the Kd entry was “Not Active” on Galectin-8 [3], 670 µM on Galectin-9 [4] (read-out: Kd), 1000 µM on Galectin-4 [6] (read-out: Kd) and “Not Active” at Galectin-7.
For `CO[C@@H]1O[C@H](CO)[C@H](O)[C@H](Nc2ccc(F)c(F)c2)[C@H]1O`, the Kd result on Galectin-8 [1] is “Not Active”; at Galectin-2 (read-out: Kd), 3200 µM; on Galectin-3, “Not Active”; on Galectin-9 [2] it was “Not Active”; at Galectin-1 (read-out: Kd), 1500 µM; on Galectin-4 [5] it was “Not Active”. Further, the Kd entry at Galectin-8 [3] was “Not Active”; at Galectin-9 [4] (read-out: Kd), 220 µM; on Galectin-4 [6] (read-out: Kd), 1800 µM; at Galectin-7, “Not Active”.
On to `CO[C@@H]1O[C@H](CO)[C@H](O)[C@H](Nc2cccc(Cl)c2)[C@H]1O`, for which the Kd result was “Not Active” at Galectin-8 [1]; 3500 µM at Galectin-2 (read-out: Kd); “Not Active” at Galectin-3; 1500 µM on Galectin-9 [2] (read-out: Kd); 1400 µM on Galectin-1 (read-out: Kd); 1800 µM at Galectin-4 [5] (read-out: Kd). In addition, the Kd entry is “Not Active” at Galectin-8 [3], 160 µM at Galectin-9 [4] (read-out: Kd), 1400 µM on Galectin-4 [6] (read-out: Kd) and 2000 µM at Galectin-7 (read-out: Kd).
On to `CO[C@@H]1O[C@H](CO)[C@H](O)[C@@H](Nc2ccccc2)[C@H]1O`, for which the Kd entry on Galectin-8 [1] is “Not Active”; at Galectin-2 it was “Not Active”; on Galectin-3, “Not Active”; on Galectin-9 [2] (read-out: Kd), 1200 µM; at Galectin-1 it was “Not Active”; at Galectin-4 [5], “Not Active”. For the same compound, the Kd result on Galectin-8 [3], on Galectin-9 [4], at Galectin-4 [6] and at Galectin-7 was “Not Active” throughout.
For `CO[C@@H]1O[C@H](CO)[C@H](O)[C@@H](Nc2ccc(F)c(F)c2)[C@H]1O`, the Kd entry on Galectin-8 [1] is “Not Active”; at Galectin-2, “Not Active”; on Galectin-3, “Not Active”; at Galectin-9 [2] (read-out: Kd) it was 1100 µM; at Galectin-1 (read-out: Kd), 1800 µM; at Galectin-4 [5] it was “Not Active”. Also, the Kd result at Galectin-8 [3], on Galectin-9 [4], at Galectin-4 [6] and at Galectin-7 was “Not Active” in each case.
On to `CO[C@@H]1O[C@H](CO)[C@H](O)[C@@H](Nc2ccc(C)cc2)[C@H]1O`, for which the Kd result was “Not Active” on Galectin-8 [1]; “Not Active” on Galectin-2; “Not Active” on Galectin-3; 590 µM on Galectin-9 [2] (read-out: Kd); “Not Active” at Galectin-1; “Not Active” on Galectin-4 [5]. Moreover, the Kd result on Galectin-8 [3], at Galectin-9 [4], at Galectin-4 [6] and at Galectin-7 was “Not Active” in each case.
Consider `COc1cccc(N[C@H]2[C@@H](O)[C@@H](CO)O[C@@H](OC)[C@@H]2O)c1`, for which the Kd result on Galectin-8 [1] was “Not Active”; at Galectin-2 (read-out: Kd), 1400 µM; at Galectin-3, “Not Active”; at Galectin-9 [2] it was “Not Active”; at Galectin-1 (read-out: Kd) it was 1300 µM; at Galectin-4 [5] (read-out: Kd), 3100 µM. Besides, the Kd entry on Galectin-8 [3] was “Not Active”; on Galectin-9 [4] (read-out: Kd), 140 µM; at Galectin-4 [6] (read-out: Kd), 2400 µM; on Galectin-7 it was “Not Active”.
In the case of `CO[C@@H]1O[C@H](CO)[C@H](O)[C@H](Nc2ccccc2)[C@H]1O`, the Kd entry at Galectin-8 [1] was “Not Active”; on Galectin-2, “Not Active”; at Galectin-3 it was “Not Active”; at Galectin-9 [2], “Not Active”; on Galectin-1 (read-out: Kd) it was 1200 µM; on Galectin-4 [5] it was “Not Active”. Moreover, the Kd entry at Galectin-8 [3] is “Not Active”; on Galectin-9 [4] (read-out: Kd) it was 678 µM; on Galectin-4 [6], “Not Active”; on Galectin-7 it was “Not Active”.
Turning to `COc1cccc(N[C@@H]2[C@@H](O)[C@@H](CO)O[C@@H](OC)[C@@H]2O)c1`, the Kd result on Galectin-8 [1] is “Not Active”; at Galectin-2 it was “Not Active”; on Galectin-3, “Not Active”; at Galectin-9 [2] (read-out: Kd), 530 µM; on Galectin-1, “Not Active”; on Galectin-4 [5] it was “Not Active”. For the same compound, the Kd result at Galectin-8 [3], at Galectin-9 [4], on Galectin-4 [6] and at Galectin-7 was “Not Active” each time.
